Here are results for ten compounds from PMC12366525, “Characterization of allosteric modulators that disrupt androgen receptor co-activator protein-protein interactions to alter transactivation–Drug leads for metastatic castration resistant prostate cancer” (SLAS discovery : advancing life sciences R & D, 2023).

For data set [1], the system named is PSA. The experiment in a line: Dot blot of PSA secretion by C4–2 cells. The data set is classed as cell-based, human. The settings on record: C4–2 cells; 10 nM DHT 24 h. The method, then:
To determine PSA secretion levels, C4–2 cells were seeded at 1.4 × 10 [5] cells/well in 12-well plates and treated as described above for PSA cell expression experiments. […] 500 μL of conditioned media supernatant was added to the wells of 96-well to Bio-blot apparatus (BioRad, Hercules, CA) containing a nitrocellulose membrane and was allowed to pass through and attach to the membrane under gravity for 3–4 h at room temperature. The membrane was washed 1x with 500 μL TBS under vacuum, blocked with 1% BSA in TBST for 1 h, and then incubated overnight at 4 °C with the primary rabbit anti-hPSA antibody (Cell Signaling, Danvers, MA) diluted 1:1000 in TBST plus 1% BSA. Dot blots were washed 3x in 10 mL of TBST for 10 min, then incubated for 1 h with secondary goat anti-rabbit-IgG HRP conjugated antibody (Invitrogen, Carlsbad, CA) diluted 1:10,000 in TBST plus 1% Bovine Serum Albumin (BSA), washed 3x with 10 mL of TBST for 10 min, and then developed with Pierce ECL western blotting substrate. Images of ECL dot blots were acquired on an iBright 1500 imaging system and quantified by iBright image analysis software.

The subject of data set [2] is PSA. The experiment in a line: Western blot of PSA expression in C4–2 cells. The conditions noted are these: C4–2 cells. The data set is classed as cell-based, human. The method, then:
Cell lysate protein concentrations were determined in a bicinchoninic acid (BCA) assay. Equal amounts of cell protein were mixed with SDS-PAGE sample buffer and placed in a heat block at 100 °C for 5 min. The protein constituents of C4–2 cells were separated by SDS-PAGE on 10% separating gels, transferred to nitrocellulose membranes and western blots were probed overnight at 4 °C with a 1:1000 dilution of a rabbit anti-hPSA (Cell Signaling, Danvers, MA) primary antibody in Tris-buffered saline (TBS) Tween 20 (TBST) containing 5% non-fat milk. Membranes were washed 3x in TBST for 10 min, then incubated for 1 h at room temperature with a 1:10,000 dilution of the goat anti-rabbit IgG horse radish peroxidase (HRP) conjugated secondary antibody (Invitrogen, Carlsbad, CA) in TBST containing 5% non-fat milk. Western blots were then washed 3x in TBST and developed with Pierce enhanced chemiluminescence (ECL) western blotting substrate (Thermo Fisher Scientific, Waltham, MA). Images of western blot ECL bands were acquired on an iBright 1500 imaging system (Thermo Fisher Scientific, Waltham, MA) and quantified by iBright image analysis software.

In the next data set the test system is LNCaP cells. The experiment in a line: Prostate cancer cell line growth inhibition assay, LNCaP. Type of data set: cell-based. The conditions noted are these: Homo sapiens, LNCaP, 72 h; read-out: LNCap GI50 (AR+). How it is done:
(§1) The PC-3, DU-145, LNCaP, C4–2, and 22Rv1 PC cell line growth inhibition assays have been described previously. On day 1, each PC cell line was harvested, counted, and seeded into two 384-well assay plates, a time zero (T0) and a time 72 h (T72) plate. PC cell lines were all seeded at 1000 cells per well in 45 μL of tissue culture media in uncoated white clear bottom 384-well assay plates (VWR, # 82050–076) using a Matrix electronic multichannel pipette (Thermo Fisher Scientific, Waltham, MA) and cultured overnight at 37 °C, 5% CO2, and 95% humidity. On day 2, 25 μL of the Cell Titer Glo (CTG) (Promega Corporation, Madison, WI) detection reagent was dispensed into the wells of the T0 assay plate using a Matrix electronic multichannel pipette, and the RLUs were captured on the SpectraMax M5e (Molecular Devices LLC, Sunnyvale, CA) microtiter plate reader. Also on day 2, 5 μL of compounds were transferred into the test wells of the T72 384-well assay plates which were returned to the incubator for 72 h. Control wells received DMSO alone. On day 5, 25 μL of the CTG detection reagent was dispensed into the wells of the T72 assay plate using a Matrix electronic multichannel pipette, and the RLU’s were captured on the SpectraMax M5e microtiter plate reader platform.
(§2) In 384-well assays, DMSO minimum (n = 32) and maximum (n = 32) plate control wells were utilized to calculate signal-to-background ratios (S:B) and Z’-factor coefficient assay performance quality control statistics, and to normalize the signals of compound treated wells and to represent 0% and 100% respectively. For the 96-well AR-LBD H^3-DHT radioligand binding assay, eight minimum and maximum plate control wells were utilized to normalize the data. For the PC cell line growth inhibition assays we used the DMSO control data from the T0 and T72 assay plates to assess the dynamic range of the T0 to T72 cell growth, and to calculate S:B ratios and Z’-factor coefficient statistics for the assay signal window (T0 to T72). To normalize the 72 h compound exposure PC growth inhibition data, the signals from the compound treated wells were processed and expressed as% of the T72 DMSO plate controls. IC50 and GI50 values for each of the bioassays were calculated using Graph-Pad Prism 9 software to plot and fit data to curves using the Sigmoidal dose response variable slope equation Y = Bottom + [Top-Bottom]/ [1 + 10^^(LogEC50-X)*HillSlope].

Data set [3] deals with T1, AR-TIF2 PPI (Homo sapiens, UniProt P10275).
T1 construct: expressed in transfected cells; host or cells: U-2 OS osteosarcoma cells, co-infected with recombinant adenoviruses
T1 sequence (P10275 663-920 limits assumed): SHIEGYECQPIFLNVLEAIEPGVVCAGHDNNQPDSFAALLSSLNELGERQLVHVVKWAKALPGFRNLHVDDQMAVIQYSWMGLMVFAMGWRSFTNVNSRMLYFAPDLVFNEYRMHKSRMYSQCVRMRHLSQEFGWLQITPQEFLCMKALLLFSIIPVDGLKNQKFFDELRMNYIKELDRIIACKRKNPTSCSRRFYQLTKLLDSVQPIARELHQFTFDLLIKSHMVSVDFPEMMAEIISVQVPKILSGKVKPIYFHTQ
The data set can be described thus: AR-TIF2 PPI biosensor (PPIB) HCS assay, disruption of pre-formed AR-TIF2 PPI complexes. The data set is classed as cell-based. The settings on record: U-2 OS cells; 25 nM DHT 90 min prior to compounds for 3 h. The method, then: (§3) Daughter plates containing 2 μL of the serially diluted compounds in DMSO were prepared and replicated from 384-well serial dilution master plates using a Janus MDT platform outfitted with a 384-well transfer head. Aluminum adhesive plate seals were applied, and plates were stored at −20 °C. For bioassay testing, daughter plates were withdrawn from −20 °C storage, thawed to ambient temperature, and centrifuged for 1 min at 100 × g, and plate seals were removed before 38 μL of serum-free media (SFM) was transferred into wells using a Matrix pipettor (ThermoFisher, Waltham, MA), to generate an intermediate stock concentration of validation compounds ranging from 0.977 to 500 μM (5.0% DMSO). Diluted compounds were mixed by repeated aspiration and dispensation using a 384-well P30 dispensing head on the Janus MDT platform and then, 5 μL of diluted compounds was transferred to assay plate wells to provide a final concentration range from 0.0977 to 50 μM (0.5% DMSO).
(§4) The AR-TIF2 PPIB HCS assay was performed in U-2 OS osteosarcoma cells as described previously. Briefly, U-2 OS cells were coinfected with recombinant adenovirus biosensor expression constructs and seeded at 2500 cells per well in 384-well collagen-coated microplates (Greiner BioOne #781956) and plates were incubated overnight at 37°C in 5% CO2 and 95% humidity. […] After the appropriate time, assay plates were fixed by transfer of 50 μL of pre-warmed (37°C) 7.4% formaldehyde and 2 μg/mL Hoechst 33342 in PBS and incubation at room temperature for 30 min. Liquid was aspirated, plates were washed twice with 85 μL PBS, leaving the final wash in the plate. Plates were sealed with adhesive aluminum plate seals, and fluorescent images of three fields of view were acquired in the DAPI (Hoechst stained nuclei), FITC (TIF2-GFP) and Texas Red (AR-RFP) channels on an ImageXpress Micro (IXM) automated HCS platform (Molecular Devices LLC, Sunnyvale, CA) using a 10X Plan Fluor 0.3 NA objective. Images were analyzed using the Translocation Enhanced (TE) image analysis module of the MetaXpress software as described previously.
as §2

Another data set deals with C4–2 cells. The data set can be described thus: Prostate cancer cell line growth inhibition assay, C4–2. Type of data set: cell-based. The conditions noted are these: C4-2, 72 h; read-out: C4–2 GI50 (AR +). How it is done:
as §1, §2

The next data set relates to DU-145 cells. The data set can be described thus: Prostate cancer cell line growth inhibition assay, DU-145. The data set is classed as cell-based. The conditions noted are these: Homo sapiens, DU-145, 72 h; read-out: DU145 GI50 (AR−). The method, then:
as §1, §2

The subject of another data set is PC-3 cells. The data set can be described thus: Prostate cancer cell line growth inhibition assay, PC-3. The conditions noted are these: Homo sapiens, PC-3, 72 h, read-out: PC3 GI50 (AR−). The data set is classed as cell-based. The method, then: as §1, §2
Data set [4] relates to PC cell lines positive (LNCaP, C4–2, & 22Rv1 cells) or negative (PC-3 & DU-145) for AR. The data set can be described thus: Prostate cancer cell line growth inhibition assays, panel statements. The data set is classed as cell-based. The conditions noted are these: ALL5; all 5 PC cell lines; 72 h; ≥50% growth inhibition not achieved at ≤100 μM; read-out: GI50 in any PC cell line. The method, then: as §1, §2

In data set [5] the target is T1, AR-TIF2 PPI. The experiment in a line: AR-TIF2 PPI biosensor (PPIB) HCS assay, inhibition of DHT-induced AR-TIF2 PPI formation. Type of data set: cell-based. The settings on record: U-2 OS cells; compounds 3 h prior to 25 nM DHT for 90 min. How it is done:
as §3, §4, §2

The next data set has as its system 22Rv1 cells. The experiment in a line: Prostate cancer cell line growth inhibition assay, 22Rv1. The conditions noted are these: Homo sapiens, 22Rv1, 72 h; read-out: 22Rv1 GI50 (AR+). The data set is classed as cell-based. The method, then:
as §1, §2

The test system of another data set is U-2 OS cells. The data set can be described thus: AR-TIF2 PPIB cell loss (Hoechst stained nuclei). Type of data set: cell-based. The conditions noted are these: 4.5 h compound exposure. The method, then: as §4
Data set [6] concerns LNCaP mouse xenograft models. The settings on record: cited from earlier work.

Several values for one entry are separate records, joined by “and”; a condition that tells them apart may be missing. Identical values can stand only once.

As for `C[C@]12CCC(=O)C[C@@H]1CC[C@@H]1[C@@H]2CC[C@]2(C)[C@@H](O)CC[C@@H]12` [DHT, 5α-dihydrotestosterone, reference compound], the “Increase of PSA levels in conditioned media over untreated controls” value in the data set with PSA [1] is reported as 2.4 fold. In the data set with PSA [2] (10 nM DHT 24 h), the “Increase of PSA levels in cells over untreated controls” value is 12.3 fold and 11.4 fold.

What is called GI50 is the concentration giving 50% growth inhibition. A word on the IC50: it is the concentration at which inhibition is half-maximal. As to `Cc1nsc(NC(=O)N2CCC(N3CCCC3=O)CC2)n1` [S2–9], the GI50 (with LNCaP cells; with C4–2 cells; with DU-145 cells; with PC-3 cells; in data set [4]; in the data set on 22Rv1 cells) was over 100 µM throughout. Further, the concentration for half-maximal inhibition (IC50) on AR-TIF2 PPI [3] and at AR-TIF2 PPI [5] was over 100 µM in each case. Moreover, the “AR-TIF2 PPIB Cell Loss” value with U-2 OS cells is over 100 µM.

As to `Cc1nsc(NC(=O)N2CCC(F)CC2)n1` [S2–10], the 50% growth inhibitory concentration (GI50) (in the data set on LNCaP cells; in the data set with C4–2 cells; with DU-145 cells; with PC-3 cells; in data set [4]; in the data set with 22Rv1 cells) was over 100 µM throughout. In the data set on U-2 OS cells, the “AR-TIF2 PPIB Cell Loss” value is over 100 µM.

With `Cc1c(-c2ccccc2F)[nH]c2ccc(CNC(=O)c3cc[nH]n3)cc12` [S3–16], the IC50 at AR-TIF2 PPI [5] was 28.8 µM.

For `Cc1c(-c2ccccc2F)[nH]c2ccc(CNC(=O)CCC3=NNC(=O)CC3)cc12` [S3–18], the IC50 on AR-TIF2 PPI [3] is over 100 µM; against AR-TIF2 PPI [5], 39.6 µM.

On to `Cc1c(-c2ccccc2F)[nH]c2ccc(CNC(=O)Cc3cccnc3)cc12` [S3–19], for which the concentration for half-maximal inhibition (IC50) on AR-TIF2 PPI [3] is over 100 µM; on AR-TIF2 PPI [5] it was 68.5 µM.

On to `CCc1[nH]c2c(CNC(=O)CCCc3cn[nH]c3)cc(F)cc2c1C` [S3–25], for which the IC50 at AR-TIF2 PPI [5] was determined as 77.1 µM.

In the case of `Cc1cccc2c(-c3ccc4ccccc4n3)c[nH]c12` [VPC-13566, 2-(7-methyl-1H-indol-3-yl) quinoline], the “CRPC tumor growth and serum PSA levels” value in data set [6] is “reduced CRPC tumor growth and serum PSA levels”.

For the compound `CC(C)NC(=O)c1cccc2nc(-c3cn(COP(=O)([O-])[O-])c4c(F)c(F)c(F)cc34)ccc12.[Na+].[Na+]` [VPC-13822], the “PSA production and CRPC tumor volume” value in data set [6] was “reduced PSA production and CRPC tumor volume”. Also, the “Toxicity in xenograft models” value in data set [6] (mouse, in vivo) is on record as “no observable toxicity”.

With `CNC(=O)c1ccc(N2C(=S)N(c3ccc(C#N)c(C(F)(F)F)c3)C(=O)C2(C)C)cc1F` [enzalutamide, reference compound], the “Reduction of DHT-enhanced PSA expression levels” value in the data set with PSA [2] (25 μM for 3 h prior to 10 nM DHT, 24 h) turned out to be 7.5 fold. In the data set on PSA [2] (25 μM for 3 h prior to media, 24 h), the “Reduction of endogenous PSA expression levels” value is given as 3.3 fold.
